The source of these data is patent publication US12116343B2, “Inhibitors of APOL1 and methods of using same” (Vertex Pharmaceuticals Incorporated, priority 2020, dated 2024).

Molecules are shown by their SMILES.

In the experiment the target is T1, APOL1 G1 Protein (Homo sapiens, UniProt O14791, I384M/S342G).
T1 sequence (O14791 28-398 S342G/I384M): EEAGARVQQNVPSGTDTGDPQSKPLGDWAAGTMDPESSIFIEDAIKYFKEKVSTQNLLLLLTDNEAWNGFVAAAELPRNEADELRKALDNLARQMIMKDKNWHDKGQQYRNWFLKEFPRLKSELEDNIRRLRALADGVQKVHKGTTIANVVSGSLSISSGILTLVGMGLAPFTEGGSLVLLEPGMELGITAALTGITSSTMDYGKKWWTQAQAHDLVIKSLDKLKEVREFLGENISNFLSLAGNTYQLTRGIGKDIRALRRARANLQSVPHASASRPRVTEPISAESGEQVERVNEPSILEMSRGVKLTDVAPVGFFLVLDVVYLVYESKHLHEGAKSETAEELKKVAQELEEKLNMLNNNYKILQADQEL
Nature of the experiment: Trypanosoma brucei brucei lysis assay using APOL1 recombinant protein (AlamarBlue viability). Format: cell-based. As to conditions: Trypanosoma brucei brucei lysis, recombinant APOL1, AlamarBlue; read-out: Trypanosoma Assay (IC50). The procedure, abridged: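 Bloodstream-form T. b. brucei Lister 427 VSG 221, 120,000 parasites/well in phenol red-free, FBS-free medium, lysed by recombinant APOL1 G1 with compound (10-point dose response, 0.1% DMSO final). Viability read by AlamarBlue fluorescence against a parasite standard curve.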
`CC[C@H](CO)NC(=O)[C@H]1C[C@H](c2c(-c3ccc(F)cc3)[nH]c3c(F)cc(F)cc32)C1` [Compound 203]: the IC50 lay within 0.25 to 1 µM.

As for `CC[C@@H](CO)NC(=O)[C@H]1C[C@H](c2c(-c3ccc(F)cc3)[nH]c3c(F)cc(F)cc32)C1` [Compound 204], the IC50 was < 0.25 µM. The result for `CN(C(=O)[C@H]1C[C@H](c2c(-c3ccc(F)cc3)[nH]c3c(F)cc(F)cc32)C1)C1COCC1O` (some centres unmarked) [Compound 205] reads > 1 µM. The result for `O=C([C@H]1C[C@H](c2c(-c3ccc(F)cc3)[nH]c3c(F)cc(F)cc32)C1)N1CC[C@H]1CO` [Compound 206] reads < 0.25 µM; that for `CC1CC(NC(=O)[C@H]2C[C@H](c3c(-c4ccc(F)cc4)[nH]c4c(F)cc(F)cc43)C2)C(=O)O1` (some centres unmarked) [Compound 207], > 1 µM.

Take `O=C1NCCC1CNC(=O)[C@H]1C[C@H](c2c(-c3ccc(F)cc3)[nH]c3c(F)cc(F)cc32)C1` (some centres unmarked) [Compound 208]: the IC50 was > 1 µM.

For `O=C1N[C@H](CO)C[C@@H]1NC(=O)[C@H]1C[C@H](c2c(-c3ccc(F)cc3)[nH]c3c(F)cc(F)cc32)C1` [Compound 209], the IC50 was > 1 µM. With `O=C([C@H]1C[C@H](c2c(-c3ccc(F)cc3)[nH]c3c(F)cc(F)cc32)C1)N1CCC[C@H]1CO` [Compound 210], the IC50 was 0.25 to 1 µM.

Turning to `C[C@]1(NC(=O)[C@H]2C[C@H](c3c(-c4ccc(F)cc4)[nH]c4c(F)cc(F)cc43)C2)C[C@@H](O)C1` [Compound 211], the IC50 was 0.25 to 1 µM.

Take `O=C(N[C@H]1CNC[C@@H]1O)[C@H]1C[C@H](c2c(-c3ccc(F)cc3)[nH]c3c(F)cc(F)cc32)C1` [Compound 212]: the 50% inhibitory concentration (IC50) was in the range of 0.25 to 1 µM.

In the case of `CS(=O)(=O)NC(=O)[C@H]1C[C@H](c2c(-c3ccc(F)cc3)[nH]c3c(F)cc(F)cc32)C1` [Compound 213], the IC50 is > 1 µM.

Regarding `CC(C)(O)C(O)CNC(=O)[C@H]1C[C@H](c2c(-c3ccc(F)cc3)[nH]c3c(F)cc(F)cc32)C1` (some centres unmarked) [Compound 215], the half-maximal inhibitory concentration (IC50) was > 1 µM.

For the compound `O=C([C@H]1C[C@H](c2c(-c3ccc(F)cc3)[nH]c3c(F)cc(F)cc32)C1)N1CCOC[C@H]1CO` [Compound 217], the IC50 is 0.25 to 1 µM.

For `O=C([C@H]1C[C@H](c2c(-c3ccc(F)cc3)[nH]c3c(F)cc(F)cc32)C1)N1CCOC[C@@H]1CO` [Compound 219], the IC50 is < 0.25 µM. The result for `COC[C@@H]1CCN1C(=O)[C@H]1C[C@H](c2c(-c3ccc(F)cc3)[nH]c3c(F)cc(F)cc32)C1` [Compound 220] reads 0.25 to 1 µM; that for `NC(=O)[C@@H](CO)NC(=O)[C@H]1C[C@H](c2c(-c3ccc(F)cc3)[nH]c3c(F)cc(F)cc32)C1` [Compound 221], < 0.25 µM. The result for `COC[C@@H]1CCN1C(=O)[C@H]1C[C@H](c2c(-c3ccc(F)cc3)[nH]c3c(F)cc(F)cc32)C1` [Compound 222] reads < 0.25 µM.

As to `O=C([C@H]1C[C@H](c2c(-c3ccc(F)cc3)[nH]c3c(F)cc(F)cc32)C1)N1CC(CO)C1` [Compound 223], the IC50 is < 0.25 µM. The result for `O=C(NC[C@@H](O)CO)[C@H]1C[C@H](c2c(-c3ccc(F)cc3)[nH]c3c(F)cc(F)cc32)C1` [Compound 224] reads > 1 µM; that for `O=C(NC[C@H](O)CO)[C@H]1C[C@H](c2c(-c3ccc(F)cc3)[nH]c3c(F)cc(F)cc32)C1` [Compound 225], 0.25 to 1 µM. The result for `O=C([C@H]1C[C@H](c2c(-c3ccc(F)cc3)[nH]c3c(F)cc(F)cc32)C1)N1C[C@@H](O)[C@H](O)C1` [Compound 227] reads 0.25 to 1 µM; that for `O=C1CN(C(=O)[C@H]2C[C@H](c3c(-c4ccc(F)cc4)[nH]c4c(F)cc(F)cc43)C2)CCN1` [Compound 228], > 1 µM; that for `NC(=O)C1CC(c2c(-c3ccc(F)cc3)[nH]c3c(F)cc(F)cc23)C1` (centres unmarked) [Compound 278, 3-[5,7-difluoro-2-(4-fluorophenyl)-1H-indol-3-yl]cyclobutanecarboxamide], 0.25 to 1 µM.
